Here are results for 13 compounds from patent US20250002526A1, “PHARMACEUTICAL COMPOSITION HAVING ANTI-CANCER IMMUNOSTIMULATING EFFECT AND/OR IMMUNE CHECKPOINT INHIBITION POTENTIATING EFFECT” (KYUSHU UNIVERSITY, NATIONAL UNIVERSITY CORPORATION, priority 2021, published 2025).

Where a name gives a salt, the structure may show the parent alone. Read-outs that look alike come from different tables or passages of the source.

The assay relates to SULT2B1b-mediated CS production in E0771-SULT cells. Briefly: CS production inhibitory effect in E0771-SULT cells (LC/MS/MS quantification of CS). The following applies: for activity at 10 µM / activity at 20 µM / IC50: Mus musculus; for activity at 10 µM: relative to control (100%); for IC50: read-out: IC50 value (CS production). The assay is classed as cell-based, mouse. As for the experimental part:
CS in each human cancer tissue sample was quantified by a method described in NPL 2. To monitor the amounts of CS and/or oxysterol generated in E0771, 3LL, EG.7-OVA, and MC38 cells irrespective of the presence or absence of SULT2B1b expression, cells of each type were seeded in a 6-well plate at 5×10^5 cells/well, and the culture supernatant and cell pellet were collected after 24 hours. Subsequently, deuterium-labeled internal standard (IS) compounds (d7-CS [[…]] and d6-25-hydroxycholesterol) were added to fractions of the culture supernatant and cell pellet, each of which was subjected to extraction with 1 mL of extraction solvent (methanol/chloroform/water=5:2:2 [v/v/v]) to extract CS and oxysterol from the culture supernatant or cell pellet.
Each sample was vigorously mixed with a vortex for 1 minute, and then ultrasonicated for 5 minutes. Thereafter, the sample was centrifuged at 16,000×g and 4° C. for 5 minutes, and the supernatant (700 μl) was collected in a clean tube. Into this, 235 μl of chloroform and 155 μl of water were added and mixed, and the resultant was then subjected to vortexing followed by centrifugation to separate into an aqueous layer and an organic layer. Subsequently, 200 μl of the lowermost layer was dried under a nitrogen flow.
The dried sample was dissolved in 50 μl of methanol, and CS and oxysterol therein were quantified by liquid chromatography-tandem mass spectrometry (LC/MS/MS) with a triple quadrupole mass spectrometer (LCMS-8060; Shimadzu Corporation) equipped with an electrospray ionization (ESI) ion source in a multiple reaction monitoring (MRM) mode.
• Column: Inertsil ODS-4 (2.1×150 mm; particle size: 3 μm; GL Sciences Inc.) • Column temperature: 40° C. • Flow rate: 0.3 ml/min • Mobile phase: (A) water/acetonitrile (1:2, v/v) containing 5 mM ammonium acetate (B) Methanol/Isopropanol (1:19, v/v) Containing 5 mM Ammonium Acetate • Gradient curve: 0 min→22 min: (B) 0%→100%, • 22 min→27 min: (B) 100%, • 27 min→27.1 min: (B) 100%→0%, • 27.1 min→30 min: (B) 0% • Injection volume: 5 μl • Mass spectrometry mode: positive and negative ion modes • Electrospray voltage: 4 kV in positive ion mode, −3.5 kV in negative ion mode • Nebulizer gas flow rate: 3.0 L/min • Drying gas flow rate: 10.0 L/min • Desolvation temperature: 250° C. • Heat block temperature: 400° C. • Detector voltage: 2.16 kV • Used were MRM mode and 2 msec of dwell time per channel.
Absolute CS and oxysterol contents were calculated from calibration curves. MRM calibration curves were prepared with chromatographic peak areas for the analytes relative to peak areas for internal standards through three times of analysis for standard solutions.
The CS production effects of test compounds (compounds 1 to 19, 21, 23, 25, and 27 to 32) were evaluated with the mouse breast cancer cell line E0771 expressing SULT2B1b (E0771-SULT cells).
Specifically, as in the above description in experimental procedure (12), E0771-SULT cells were seeded in a 6-well plate at a proportion of 5×10^5 cells/well, and cultured in the presence or absence (control) of each test compound for 24 hours. After culturing, CS generated in E0771-SULT cells was quantified by LC/MS/MS according to the description in experimental procedure (12). The CS production capacity (% activity) of cells cultured in the presence of each test compound was evaluated from the percentage relative to the CS production level (control) (100%) in E0771-SULT cells cultured in the absence of the test compound, and the CS production inhibitory effect of the test compound was evaluated.

The mark [1] stands for this setting: 24 h, read-out: CS production % activity at 10 μM, E0771-SULT cells, 24 hours, test compound 10 μM (Table 1).
The mark [2] stands for this setting: 24 h, read-out: CS production % activity at 10 μM, E0771-SULT cells, 24 hours, third concentration column of Table 1, head again printed 10 μM.
[3] abbreviates: 24 h, read-out: CS production % activity at 20 μM, E0771-SULT cells, 24 hours, test compound 20 μM, relative to control without compound (100%).

Take `C[C@H](CCC(=O)O)[C@H]1CC[C@H]2[C@@H]3CC=C4C[C@@H](OC(=O)C(F)(F)F)CC[C@]4(C)[C@H]3CC[C@]12C` [Compound 2, (R)-4-((3S,8S,9S,10R,13R,14S,17R)-10,13-dimethyl-3-(2,2,2-trifluoroacetoxy)-2,3,4,7,8,9,10,11,12,13,14,15,16,17-tetradecahydro-1H-cyclopenta[a]phenanthren-17-yl)pentanoic acid]: the IC50 came out at 6 µM. In addition, the activity at 10 µM under setting [1] was 34%. Moreover, the activity at 10 µM under setting [2] was determined as 52.5%. Besides, under setting [3], the activity at 20 µM was found to be 36.8%.
Regarding `COC(=O)CC[C@@H](C)[C@H]1CC[C@H]2[C@@H]3CC=C4C[C@@H](OC)CC[C@]4(C)[C@H]3CC[C@]12C` [Compound 5, methyl (R)-4-((3S,8S,9S,10R,13R,14S,17R)-3-methoxy-10,13-dimethyl-2,3,4,7,8,9,10,11,12,13,14,15,16,17-tetradecahydro-1H-cyclopenta[a]phenanthren-17-yl)pentanoate], the activity at 20 µM (24 h, E0771-SULT cells, 24 hours, test compound 20 μM, relative to control without compound (100%), read-out: CS production % activity at 20 μM) came out at 92.3%.
Turning to `CC(CCC(=O)N1CCSCC1)C1CCC2C3CC=C4CC(O)CCC4(C)C3CCC12C` [Compound 9, (R)-4-((3S,8S,9S,10R,13R,14S,17R)-3-hydroxy-10,13-dimethyl-2,3,4,7,8,9,10,11,12,13,14,15,16,17-tetradecahydro-1H-cyclopenta[a]phenanthren-17-yl)-1-thiomorpholinopentan-1-one], the activity at 20 µM under setting [3] is 87.2%.
On the same count and under the same terms, the figure for `C[C@H](CCC(=O)N1CCOCC1)[C@H]1CC[C@H]2[C@@H]3CC=C4C[C@@H](O)CC[C@]4(C)[C@H]3CC[C@]12C` [Compound 11, (R)-4-((3S,8S,9S,10R,13R,14S,17R)-3-hydroxy-10,13-dimethyl-2,3,4,7,8,9,10,11,12,13,14,15,16,17-tetradecahydro-1H-cyclopenta[a]phenanthren-17-yl)-1-morpholinopentan-1-one] is 87.4%.
`C[C@H](CCC(=O)N1CCOCC1)[C@H]1CC[C@H]2[C@@H]3CC=C4C[C@H](n5cc(CN(C)C)nn5)CC[C@]4(C)[C@H]3CC[C@]12C` [Compound 13, (R)-4-((3R,8S,9S,10R,13R,14S,17R)-3-(4-((dimethylamino)methyl)-1H-1,2,3-triazol-1-yl)-10,13-dimethyl-2,3,4,7,8,9,10,11,12,13,14,15,16,17-tetradecahydro-1H-cyclopenta[a]phenanthren-17-yl)-1-morpholinopentan-1-one]: under setting [3], the activity at 20 µM is 65.8%.
`C[C@H](CCC(=O)O)[C@H]1CC[C@H]2[C@@H]3CC[C@@H]4C[C@H](O)CC[C@]4(C)[C@H]3CC[C@]12C` [Compound 14, (4R)-4-[(3R,5R,8R,9S,10S,13R,14S,17R)-3-hydroxy-10,13-dimethyl-2,3,4,5,6,7,8,9,11,12,14,15,16,17-tetradecahydro-1H-cyclopenta[a]phenanthren-17-yl]pentanoic acid]: the activity at 20 µM (E0771-SULT cells, 24 hours, test compound 20 μM, relative to control without compound (100%), read-out: CS production % activity at 20 μM) is 31.5%. Also, the activity at 10 µM (E0771-SULT cells, 24 hours, third concentration column of Table 1, head again printed 10 μM, read-out: CS production % activity at 10 μM) came out at 62%. Further, the half-maximal inhibitory concentration (IC50) (E0771-SULT cells) turned out to be 7.2 µM.
`CC(=O)C1=CC[C@H]2[C@@H]3CC=C4CC(OC(=O)CCN5CCOCC5)CC[C@]4(C)[C@H]3CC[C@]12C` (stereo partly drawn) [Compound 15, (8R,9S,10R,13S,14S)-17-acetyl-10,13-dimethyl-2,3,4,7,8,9,10,11,12,13,14,15-dodecahydro-1H-cyclopenta[a]phenanthren-3-yl3-morpholinopropanoate]: the IC50 was determined as 7.8 µM. Besides, under setting [1], the activity at 10 µM was found to be 40.9%. Further, under setting [2], the activity at 10 µM stood at 63%. Further, the activity at 20 µM under setting [3] is 38.9%.
Taken in the same sequence, the figures for `CC(=O)C1=CC[C@H]2[C@@H]3CC[C@H]4C[C@H](OC(=O)CCN5CCOCC5)CC[C@]4(C)[C@H]3CC[C@]12C` [Compound 16, (3R,5S,8R,9S,10S,13S,14S)-17-acetyl-10,13-dimethyl-2,3,4,5,6,7,8,9,10,11,12,13,14,15-tetradecahydro-1H-cyclopenta[a]phenanthren-3-yl3-morpholinopropanoate] were 9.6 µM, 49.9%, 55.7% and 42.3%.
For the compound `COC(=O)C1CCCN1C(=O)CCC(=O)OCC(=O)C1(OC(C)=O)CCC2C3CCC4=CC(=O)CCC4(C)C3CCC21C` [Compound 18, methyl (4-(2-8((8R,9S,10R,13S,14S,17R)-17-acetoxy-10,13-dimethyl-3-oxo-2,3,6,7,8,9,10,11,12,13,14,15,16,17-tetradecahydro-1H-cyclopenta[a]phenanthren-17-yl)-2-oxoethoxy)-4-oxobutanoyl)-L-prolinate], the IC50 was found to be 16 µM. Moreover, under setting [1], the activity at 10 µM was determined as 60.6%. Moreover, the activity at 10 µM under setting [2] came out at 71.7%. Under setting [3], the activity at 20 µM worked out at 54.8%.
Take `C#CCOCCNC(=O)CC[C@@H](C)[C@H]1CC[C@H]2[C@@H]3CC=C4C[C@@H](OS(=O)(=O)O)CC[C@]4(C)[C@H]3CC[C@]12C` [Compound 21, (3S,8S,9S,10R,13R,14S,17R)-10,13-dimethyl-17-((R)-5-oxo-5-((2-(prop-2-yn-1-yloxy)ethyl)amino)pentan-2-yl)-2,3,4,7,8,9,10,11,12,13,14,15,16,17-tetradecahydro-1H-cyclopenta[a]phenanthren-3-yl sulfate]: the activity at 20 µM under setting [3] was found to be 85.7%.
The same measure, in the same setting: the result for `C#CCOCCOCCNC(=O)CC[C@@H](C)[C@H]1CC[C@H]2[C@@H]3CC=C4C[C@@H](OS(=O)(=O)O)CC[C@]4(C)[C@H]3CC[C@]12C` [Compound 23, (3S,8S,9S,10R,13R,14S,17R)-10,13-dimethyl-17-((R)-5-oxo-5-((2-(2-(prop-2-yn-1-yloxy)ethoxy)ethyl)amino)pentan-2-yl)-2,3,4,7,8,9,10,11,12,13,14,15,16,17-tetradecahydro-1H-cyclopenta[a]phenanthren-3-yl sulfate] reads 70.1%.
Regarding `C#CCOCCOCCOCCOCCNC(=O)CC[C@@H](C)[C@H]1CC[C@H]2[C@@H]3CC=C4C[C@@H](OS(=O)(=O)O)CC[C@]4(C)[C@H]3CC[C@]12C` [Compound 25, (3S,8S,9S,10R,13R,14S,17R)-10,13-dimethyl-17-((R)-17-oxo-4,7,10,13-tetraoxa-16-azahenicos-1-yn-20-yl)-2,3,4,7,8,9,10,11,12,13,14,15,16,17-tetradecahydro-1H-cyclopenta[a]phenanthren-3-yl sulfate], under setting [3], the activity at 20 µM came out at 60.1%.
For the compound `C#CCOCCOCCOCCOCCOCCOCCNC(=O)CC[C@@H](C)[C@H]1CC[C@H]2[C@@H]3CC=C4C[C@@H](OS(=O)(=O)O)CC[C@]4(C)[C@H]3CC[C@]12C` [Compound 27, (3S,8S,9S,10R,13R,14S,17R)-10,13-dimethyl-17-((R)-23-oxa-4,7,10,13,16,19-hexaoxa-22-azaheptacos-1-yn-26-yl)-2,3,4,7,8,9,10,11,12,13,14,15,16,17-tetradecahydro-1H-cyclopenta[a]phenanthren-3-yl sulfate], the “CS production % activity at 20 μM” value (E0771-SULT cells, 24 hours, test compound 20 μM, relative to control without compound (100%)) is recorded as 59.0%.
